This note sets out measurements from US7338950B2, “Amide compounds as ion channel ligands and uses thereof” (Renovis, Inc., priority 2003, dated 2008).

In the assay the test system is VR1 receptor (293 cells expressing capsaicin-insensitive VR1 receptor variants). The experiment in a line: High throughput screening of VR1 antagonists using a calcium imaging assay (Fura2, pH 5.1 stimulus).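 Also: Fura2 ratiometric fluorescence read every 4 s over 3 min, response taken as peak ratio minus baseline before pre-treatment, compound pre-treatment preceding acid challenge.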 The conditions noted are these: 1 uM compound; inhibition of calcium ion influx.
Excerpt: A dual wavelength ratiometric dye, Fura2, was used as an indicator of relative levels of calcium ions in a 96 well format using a bench top scanning fluorometer with integrated fluidics and temperature control (Flex Station, Molecular Devices).
A dual wavelength ratiometric dye, Fura2, was used as an indicator of relative levels of [Ca2+] in a 96 well format using a bench top scanning fluorometer with integrated fluidics and temperature control (Flex Station, Molecular Devices).
293 cells were grown on PDL coated 96-well black-walled plates, in the presence of a DMEM medium containing 5% Penstrep, 5% Glutamax, 200 ug/mL Hygromycin, 5 μg/mL Blasticide and 10% heat inactivated FBS. Prior to assay, the cells were loaded with 5 μg/mL Fura2 in normal saline solution at 37° C. for 40 minutes. Cells were then washed with normal saline to remove the dye.
The assay consists of two stages; a pre-treatment phase followed by a treatment phase.
50 μl of a compound solution was added to the cells (Pre-treatment). Immediately following, 50 μl of the test compound in a saline solution at pH 5.1 was added. […] Changes in wavelength measurements were made throughout the course of the experiment in 4 second intervals over a period of 3 minutes. Responses were measured as peak fluorescence ratio after test compound addition minus baseline fluorescence ratio prior to pre-treatment and were calculated using SoftMaxPro softwareData were expressed as percentage inhibition calculated using Excel as follows:
Consider `COc1cc(C(=O)Nc2ccncn2)ccc1-c1ncccc1Cl` [Compound 1242], for which the “% Inhibition @ 1 uM” value was “++ (compound exhibited 25-50% inhibition of calcium ion influx induced by capsaicin stimulation)”.
With `COc1cc(C(=O)Nc2ccc(Br)cn2)ccc1-c1ncccc1Cl` [Compound 1243] the entry was “+ (compound exhibited 0-25% inhibition of calcium ion influx induced by capsaicin stimulation)”; with `COc1ccc(NC(=O)c2ccc(-c3ncccc3Cl)c(OC)c2)cn1` [Compound 1247], “++ (compound exhibited 25-50% inhibition of calcium ion influx induced by capsaicin stimulation)”; with `COc1cc(C(=O)Nc2ccnc(Cl)c2)ccc1-c1ncccc1Cl` [Compound 1248], “+ (compound exhibited 0-25% inhibition of calcium ion influx induced by capsaicin stimulation)”.
Turning to `COc1cc(C(=O)Nc2cc(C)nc(C)n2)ccc1-c1ncccc1Cl` [Compound 1249], the “% Inhibition @ 1 uM” value is “+ (compound exhibited 0-25% inhibition of calcium ion influx induced by capsaicin stimulation)”.
In the case of `COc1cc(C(=O)Nc2ccc3ncccc3c2)ccc1-c1ncccc1Cl` [Compound 1250], the “% Inhibition @ 1 uM” value was “++++ (compound exhibited 75% or greater inhibition of calcium ion influx induced by capsaicin stimulation)”.
With `CCn1c2ccccc2c2cc(NC(=O)c3ccc(-c4ccccc4Cl)c(OC)c3)ccc21` [Compound 1251] the entry was “+ (compound exhibited 0-25% inhibition of calcium ion influx induced by capsaicin stimulation)”; with `COc1cc(C(=O)Nc2nccs2)ccc1-c1ncccc1Cl` [Compound 1252], “+ (compound exhibited 0-25% inhibition of calcium ion influx induced by capsaicin stimulation)”.
With `COc1cc(C(=O)Nc2ccc3ccccc3c2)ccc1-c1ncccc1Cl` [Compound 1253] the entry was “++++ (compound exhibited 75% or greater inhibition of calcium ion influx induced by capsaicin stimulation)”; with `COc1ccc(NC(=O)c2ccc(-c3ncccc3Cl)c(OC)c2)cc1OC` [Compound 1257], “+ (compound exhibited 0-25% inhibition of calcium ion influx induced by capsaicin stimulation)”; with `COc1cc(C(=O)Nc2cccc(C(=O)O)c2)ccc1-c1ncccc1Cl` [Compound 1258], “+ (compound exhibited 0-25% inhibition of calcium ion influx induced by capsaicin stimulation)”.
With `COc1cc(C(=O)Nc2ccc(Cl)c(C(=O)O)c2)ccc1-c1ncccc1Cl` [Compound 1259] the entry was “++++ (compound exhibited 75% or greater inhibition of calcium ion influx induced by capsaicin stimulation)”; with `COc1cc(C(=O)Nc2cc(OC)c(OC)c(OC)c2)ccc1-c1ncccc1Cl` [Compound 1263], “++++ (compound exhibited 75% or greater inhibition of calcium ion influx induced by capsaicin stimulation)”; with `COc1cc(C(=O)Nc2ccc3cn[nH]c3c2)ccc1-c1ncccc1Cl` [Compound 1264], “++ (compound exhibited 25-50% inhibition of calcium ion influx induced by capsaicin stimulation)”.
For the compound `COc1cc(C(=O)Nc2ccc(C#N)c(Cl)c2)ccc1-c1ncccc1Cl` [Compound 1265], the “% Inhibition @ 1 uM” value is “++++ (compound exhibited 75% or greater inhibition of calcium ion influx induced by capsaicin stimulation)”.
With `COc1cc(C(=O)Nc2cccc(C(F)(F)F)c2)ccc1-c1ncccc1Cl` [Compound 1267] the entry was “++ (compound exhibited 25-50% inhibition of calcium ion influx induced by capsaicin stimulation)”.
With `COc1cc(C(=O)Nc2cccc(OC(F)(F)F)c2)ccc1-c1ncccc1Cl` [Compound 1269] the entry was “+ (compound exhibited 0-25% inhibition of calcium ion influx induced by capsaicin stimulation)”; with `COc1cc(C(=O)Nc2cccc(OC(C)C)c2)ccc1-c1ncccc1Cl` [Compound 1270], “+ (compound exhibited 0-25% inhibition of calcium ion influx induced by capsaicin stimulation)”; with `COc1cc(C(=O)Nc2ccc(F)c(F)c2)ccc1-c1ncccc1Cl` [Compound 1271], “+++ (compound exhibited 50-75% inhibition of calcium ion influx induced by capsaicin stimulation)”.
With `CCOc1ccc(NC(=O)c2ccc(-c3ncccc3Cl)c(OC)c2)cc1` [Compound 1273] the entry was “+ (compound exhibited 0-25% inhibition of calcium ion influx induced by capsaicin stimulation)”.
Regarding `COc1cc(C(=O)Nc2ccc(OC)c(C(F)(F)F)c2)ccc1-c1ncccc1Cl` [Compound 1275], the “% Inhibition @ 1 uM” value was “++ (compound exhibited 25-50% inhibition of calcium ion influx induced by capsaicin stimulation)”.
With `COc1cc(C(=O)Nc2ccc(N3CCOCC3)c(Cl)c2)ccc1-c1ncccc1Cl` [Compound 1276] the entry was “+ (compound exhibited 0-25% inhibition of calcium ion influx induced by capsaicin stimulation)”.
With `COc1cc(C(=O)Nc2ccc(-c3cnco3)cc2)ccc1-c1ncccc1Cl` [Compound 1277] the entry was “+++ (compound exhibited 50-75% inhibition of calcium ion influx induced by capsaicin stimulation)”; with `COc1cc(C(=O)Nc2ccc(Cl)cc2S(=O)(=O)O)ccc1-c1ncccc1Cl` [Compound 1278], “+ (compound exhibited 0-25% inhibition of calcium ion influx induced by capsaicin stimulation)”.
Take `CCN(CC)CCOC(=O)c1ccc(NC(=O)c2ccc(-c3ncccc3Cl)cc2)cc1` [Compound 1282]: the “% Inhibition @ 1 uM” value is listed as “+ (compound exhibited 0-25% inhibition of calcium ion influx induced by capsaicin stimulation)”.
With `CCOC(=O)c1cccc(NC(=O)c2ccc(-c3ncccc3Cl)cc2)c1` [Compound 1286] the entry was “+ (compound exhibited 0-25% inhibition of calcium ion influx induced by capsaicin stimulation)”; with `COc1ccc(NC(=O)c2ccc(-c3ncccc3Cl)cc2)cc1O` [Compound 1288], “+ (compound exhibited 0-25% inhibition of calcium ion influx induced by capsaicin stimulation)”.
With `O=C(Nc1ccc2cn[nH]c2c1)c1ccc(-c2ncccc2Cl)cc1` [Compound 1290] the entry was “++ (compound exhibited 25-50% inhibition of calcium ion influx induced by capsaicin stimulation)”.
With `CCCOc1ccc(NC(=O)c2ccc(-c3ncccc3Cl)cc2)cc1` [Compound 1291] the entry was “+ (compound exhibited 0-25% inhibition of calcium ion influx induced by capsaicin stimulation)”; with `O=C(Nc1ccc(OC(F)(F)F)cc1)c1ccc(-c2ncccc2Cl)cc1` [Compound 1293], “+ (compound exhibited 0-25% inhibition of calcium ion influx induced by capsaicin stimulation)”.
With `O=C(Nc1cccc(OC(F)(F)F)c1)c1ccc(-c2ncccc2Cl)cc1` [Compound 1294], the “% Inhibition @ 1 uM” value is “+ (compound exhibited 0-25% inhibition of calcium ion influx induced by capsaicin stimulation)”.
As for `CC(C)Oc1cccc(NC(=O)c2ccc(-c3ncccc3Cl)cc2)c1` [Compound 1295], the “% Inhibition @ 1 uM” value is given as “+ (compound exhibited 0-25% inhibition of calcium ion influx induced by capsaicin stimulation)”.
With `O=C(Nc1ccc(F)c(F)c1)c1ccc(-c2ncccc2Cl)cc1` [Compound 1296] the entry was “+ (compound exhibited 0-25% inhibition of calcium ion influx induced by capsaicin stimulation)”; with `CCOc1ccc(NC(=O)c2ccc(-c3ncccc3Cl)cc2)cc1` [Compound 1298], “+ (compound exhibited 0-25% inhibition of calcium ion influx induced by capsaicin stimulation)”; with `O=C(Nc1ccc(N2CCOCC2)c(Cl)c1)c1ccc(-c2ncccc2Cl)cc1` [Compound 1301], “+++ (compound exhibited 50-75% inhibition of calcium ion influx induced by capsaicin stimulation)”.
With `CN1CCCc2ccc(NC(=O)c3ccc(-c4ncccc4Cl)cc3)cc21` [Compound 1304], the “% Inhibition @ 1 uM” value is “+ (compound exhibited 0-25% inhibition of calcium ion influx induced by capsaicin stimulation)”.
With `O=C(Nc1ccccc1)c1ccc(-c2ncccc2Cl)cn1` [Compound 1306] the entry was “++++ (compound exhibited 75% or greater inhibition of calcium ion influx induced by capsaicin stimulation)”; with `O=C(Nc1ccc(F)cc1)c1ccc(-c2ncccc2Cl)cn1` [Compound 1308], “+ (compound exhibited 0-25% inhibition of calcium ion influx induced by capsaicin stimulation)”; with `N#Cc1ccccc1NC(=O)c1ccc(-c2ncccc2Cl)cn1` [Compound 1309], “+ (compound exhibited 0-25% inhibition of calcium ion influx induced by capsaicin stimulation)”.
With `O=C(Nc1ccccc1Cl)c1ccc(-c2ncccc2Cl)cn1` [Compound 1314] the entry was “++++ (compound exhibited 75% or greater inhibition of calcium ion influx induced by capsaicin stimulation)”; with `N#Cc1cccc(NC(=O)c2ccc(-c3ncccc3Cl)cn2)c1` [Compound 1316], “++++ (compound exhibited 75% or greater inhibition of calcium ion influx induced by capsaicin stimulation)”.
With `CCCCc1ccc(NC(=O)c2ccc(-c3ncccc3Cl)cn2)cc1` [Compound 1319] the entry was “+++ (compound exhibited 50-75% inhibition of calcium ion influx induced by capsaicin stimulation)”; with `O=C(Nc1ccc(C2CCCCC2)cc1)c1ccc(-c2ncccc2Cl)cn1` [Compound 1320], “++++ (compound exhibited 75% or greater inhibition of calcium ion influx induced by capsaicin stimulation)”.
On to `O=C(Nc1ccc(C(F)(F)F)cc1)c1ccc(-c2ncccc2Cl)cn1` [Compound 1325], for which the “% Inhibition @ 1 uM” value was “+ (compound exhibited 0-25% inhibition of calcium ion influx induced by capsaicin stimulation)”.
With `COc1cc(NC(=O)c2ccc(-c3ncccc3Cl)cn2)cc(C(F)(F)F)c1` [Compound 1328] the entry was “+ (compound exhibited 0-25% inhibition of calcium ion influx induced by capsaicin stimulation)”; with `Cc1cc(C)nc(NC(=O)c2ccc(-c3ncccc3Cl)cn2)c1` [Compound 1329], “+ (compound exhibited 0-25% inhibition of calcium ion influx induced by capsaicin stimulation)”.
With `O=C(Nc1ccncc1)c1ccc(-c2ncccc2Cl)cn1` [Compound 1330] the entry was “+++ (compound exhibited 50-75% inhibition of calcium ion influx induced by capsaicin stimulation)”.
